Like-named read-outs stand apart in the source and are kept apart here.
Tests used:
[1] = biological target: T1, dopamine D2 receptors (Homo sapiens (Human), UniProt P14416); experiment: Affinity for dopamine D2 receptors, radioligand competition with [3H]-Methylspiperone; type: binding; details: 293T membrane transiently expressing D2
Procedure: The affinity of the compounds of the present disclosure for the dopamine D2 receptors was determined by the method of radioligand competition experiment. In the first step, a cell membrane component containing specific dopamine D2 receptors was prepared. A 10 cm culture dish was used for transfection with 10 ng of the dopamine D2 receptors and 40 μL of polyethylenimine (PEI hereafter). After 48 hours, the 10 cm culture dish was taken out from the cell culture incubator and the cultured cells had expressed the dopamine D2 receptors. A vacuum pump was used to suck off the culture medium, 3 mL of lysis buffer was added to each culture dish, and the cells were placed in a 4° C. cold room for 10 minutes. After the cells were detached, the cells were transferred to a 15 mL centrifuge tube and centrifuged at 1500 rpm for 5 minutes at 4° C., and the supernatant was discarded. The cell pellet was transferred to a tissue homogenizer, and 3 mL of lysis buffer was added and fully ground until the cells were broken. Then, cell suspension was equally aliquoted into several EP tubes, centrifuged at 12000 rpm for 5 minutes at 4° C., and the supernatant was discarded. The precipitate was the cell membrane component containing the dopamine D2 receptors. […] First, a standard binding buffer was added to the cell membrane component containing the dopamine D2 receptors, and the cell membrane was disrupted and resuspended with an electric tissue homogenizer. 30 μL of membrane protein suspension was added to each well of a 96-well plate. Then, 30 μL of different drugs were added to the 96-well plate sequentially from bottom to top to ensure that the final drug concentrations were 10^−5 M, 10^−6 M, 10^−7 M, 10^−8 M, 10^−9 M, and 0 M, with two replicates per treatment. Next, 30 μL of [3H]-Methylspiperone was added to each well of the 96-well plate. The plate was incubated for 2 hours at room temperature in the dark. Detection was conducted. The machine readout value reflected the amount of [3H]-Methylspiperone bound on the membrane, and after further data processing, the affinity Ki values of different compounds for the dopamine D2 receptors were obtained.

[2] = biological target: T1, dopamine D2 receptors; experiment: Dopamine D2 receptor Gαi1 BRET (G protein trimer dissociation); type: cell-based; details: for Emax: read-out: Gαi1 BRET (Emax %);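 on all read-outs here: transfected cells co-expressing D2 receptor, Gαi1-Rluc, Gβ3 and Gγ9-GFP, BRET with coelenterazine 400a at 5 µM read as G protein trimer dissociation, graded drug concentrations in duplicate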
Procedure: (§1) To examine the downstream G protein signaling pathway mediated by dopamine D2 receptors, on the first day, a 6 cm culture dish was used for transfection with 1 μg of dopamine D2 receptors, 1 μg of Gαi1 containing a C-terminal seaweed luciferase (Gαi1-Rluc), 1 μg of Gβ3, 1 μg of Gγ9 containing C-terminal green fluorescent protein (Gγ9-GFP), and 16 μL of PEI. At the same time, in order to examine the downstream β-arrestin2 signaling pathway mediated by dopamine D2 receptors, on the first day, a 6 cm culture dish was used for transfection with 500 μg of dopamine D2 receptors containing C-terminal seaweed luciferase (D2-Rluc), 500 μg of G protein-coupled receptor kinase 2 (GRK2), 2500 μg of β-arrestin2 containing N-terminal green fluorescent protein (GFP2-ARRB2) mixed with 14 μL of PEI. The next day, the confluent cells of a 6 cm culture dish were digested and reseeded into a 96-well plate with 100 μL of culture medium added to each well. On the third day, the drugs were added for test. The 96-well plate was taken out from the cell incubator to decant the culture medium, 40 μL of the substrate coelenterazine 400a (final concentration of 5 μM) was added to each well, and then 20 μL of different drugs were added sequentially from left to right to ensure that the final concentration of the drug decreased gradually from bottom to top, with two replicates per treatment. Finally, the prepared samples were loaded on machine for test. The machine readout value reflected the recruitment of β-arrestin2 to the membrane or the dissociation of G protein trimer. The former indicated the degree of activation of the β-arrestin2 signaling pathway downstream of the dopamine D2 receptors, and the latter indicated the degree of activation of the G protein signaling pathway downstream of the dopamine D2 receptors.

[3] = biological target: T1, dopamine D2 receptors; experiment: Dopamine D2 receptor β-arrestin2 BRET (recruitment); type: cell-based; details: for Emax: read-out: β-arrestin2 BRET (Emax %);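 on all read-outs here: cells co-expressing Rluc-fused D2 receptor, GRK2 and GFP2-fused β-arrestin2, BRET read with coelenterazine 400a after adding drug over a concentration series, in duplicate wells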
Procedure: as §1

[4] = biological target: T2, 5-HT2A receptor (Homo sapiens (Human), UniProt P28223); experiment: Affinity for 5-HT2A receptors, radioligand competition with [3H]-ketanserin; type: binding; details: 293T membrane transiently expressing 5-HT2A
Procedure: The affinity of the compounds of the present disclosure for the 5-HT2A receptors was determined by the method of radioligand competition experiment. In the first step, a cell membrane component containing specific 5-HT2A receptor was prepared. A 10 cm dish was used for transfection with 10 ng of the 5-HT2A receptor and 40 μL of PEI. After 48 hours, the 10 cm dish was taken out from the cell incubator and the cultured cells had expressed the 5-HT2A receptor. A vacuum pump was used to suck off the culture medium, 3 mL of lysis buffer was added to each culture dish, and the cells were placed in a 4° C. cold room for 10 minutes. After the cells were detached, the cells were transferred to a 15 mL centrifuge tube and centrifuged at 1500 rpm for 5 minutes at 4° C., and the supernatant was discarded. The cell pellet was transferred to a tissue homogenizer, and 3 mL of lysis buffer was added and fully ground until the cells were broken. Then, cell suspension was equally aliquoted into several EP tubes, centrifuged at 12000 rpm for 5 minutes at 4° C., and the supernatant was discarded. The precipitate was the cell membrane component containing the 5-HT2A receptor. […] First, a standard binding buffer was added to the cell membrane component containing the 5-HT2A receptor, and the cell membrane was disrupted and resuspended with an electric tissue homogenizer. 30 μL of membrane protein suspension was added to each well of a 96-well plate. Then, 30 μL of different drugs were added to the 96-well plate sequentially from bottom to top to ensure that the final drug concentrations were 10^−5 M, 10^−6 M, 10^−7 M, 10^−8 M, 10^−9 M, and 0 M, with two replicates per treatment. Next, 30 μL of [3H]-ketanserin was added to each well of the 96-well plate. The plate was incubated for 2 hours at room temperature in the dark. Detection was conducted. The machine readout value reflected the amount of [3H]-ketanserin bound on the membrane, and after further data processing, the affinity Ki values of different compounds for the 5-HT2A receptor were obtained.

[5] = biological target: T2, 5-HT2A receptor; experiment: 5-HT2A receptor Gαq BRET (G protein trimer dissociation); type: cell-based; details: for Emax: read-out: Gαq BRET (Emax %);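 on all read-outs here: cells transfected with 5-HT2A receptor, Gαq-Rluc, Gβ3 and Gγ9-GFP, BRET read with coelenterazine 400a (5 µM) across a compound dilution series in duplicate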
Procedure: (§2) To examine the downstream G protein signaling pathway mediated by 5-HT2A receptors, on the first day, a 6 cm culture dish was used for transfection with 1 μg of 5-HT2A receptors, 1 μg of Gαq containing C-terminal seaweed luciferase (Gαq-Rluc), 1 μg of Gβ3, 1 μg of Gγ9 containing C-terminal green fluorescent protein (Gγ9-GFP), and 16 μL of PEI. At the same time, in order to examine the downstream β-arrestin2 signaling pathway mediated by 5-HT2A receptors, on the first day, a 6 cm culture dish was used for transfection with 500 μg of 5-HT2A receptors containing C-terminal seaweed luciferase (5-HT2A-Rluc), 500 μg of G protein-coupled receptor kinase 2 (GRK2), 2500 μg of β-arrestin2 containing N-terminal green fluorescent protein (GFP2-ARRB2), and 14 μL of PEI. The next day, the confluent cells of a 6 cm culture dish were digested and reseeded into a 96-well plate with 100 μL of culture medium was added to each well. On the third day, the drugs were added for test. The 96-well plate was taken out from the cell incubator to decant the culture medium, 40 μL of the substrate coelenterazine 400a (final concentration of 5 μM) was added to each well, and then 20 μL of different drugs were added sequentially from left to right to ensure that the final concentration of the drug decreased gradually from bottom to top, with two replicates per treatment. Finally, the prepared samples were loaded on machine for test. The machine readout value reflected the recruitment of β-arrestin2 to the membrane or the dissociation of G protein trimer. The former indicated the degree of activation of the β-arrestin2 signaling pathway downstream of the 5-HT2A receptors, and the latter indicated the degree of activation of the G protein signaling pathway downstream of the 5-HT2A receptors.

[6] = biological target: T2, 5-HT2A receptor; experiment: 5-HT2A receptor β-arrestin2 BRET (recruitment); type: cell-based;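 further: cells co-expressing Rluc-tagged 5-HT2A receptor, GRK2 and GFP2-tagged β-arrestin2, read by BRET with coelenterazine 400a (5 µM) across graded drug concentrations in duplicate, signal reflecting β-arrestin2 membrane recruitment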
Procedure: as §2

[7] = biological target: T3, 5-HT1A receptor (Homo sapiens (Human), UniProt P08908); experiment: Affinity for 5-HT1A receptors, radioligand competition with [3H]-LSD; type: binding;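 further: membranes from cells transiently transfected with 5-HT1A receptor, bound [3H]-LSD displaced by compound at 10^-9 to 10^-5 M, 2 h incubation at room temperature in the dark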
Procedure: (§3) The affinity of the compounds of the present disclosure for the 5-HTIA receptors was determined by the method of radioligand competition experiment. In the first step, a cell membrane component containing specific 5-HTIA receptor was prepared. A 10 cm culture dish was used for transfection with 10 ng of the 5-HTIA receptor and 40 μL of PEI. After 48 hours, the 10 cm culture dish was taken out from the cell incubator and the cultured cells had expressed the 5-HTIA receptor. A vacuum pump was used to suck off the culture medium, 3 mL of lysis buffer was added to each culture dish, and the cells were placed in a 4° C. cold room for 10 minutes. After the cells were detached, the cells were transferred to a 15 mL centrifuge tube and centrifuged at 1500 rpm for 5 minutes at 4° C., and the supernatant was discarded. The cell pellet was transferred to a tissue homogenizer, and 3 mL of lysis buffer was added and fully ground until the cells were broken. Then, cell suspension was equally aliquoted into several EP tubes, centrifuged at 12000 rpm for 5 minutes at 4° C., and the supernatant was discarded. The precipitate was the cell membrane component containing the 5-HT1A receptor. […] First, a standard binding buffer was added to the cell membrane component containing the 5-HT1A receptor, and the cell membrane was disrupted and resuspended with an electric tissue homogenizer. 30 μL of membrane protein suspension was added to each well of a 96-well plate. Then, 30 μL of different drugs were added to the 96-well plate sequentially from bottom to top to ensure that the final drug concentrations were 10^−5 M, 10^−6 M, 10^−7 M, 10^−8 M, 10^−9 M, and 0 M, with two replicates per treatment. Next, 30 μL of [3H]-LSD was added to each well of the 96-well plate. The plate was incubated for 2 hours at room temperature in the dark. Detection was conducted. The machine readout value reflected the amount of [3H]-LSD bound on the membrane, and after further data processing, the affinity Ki values of different compounds for the 5-HTIA receptor were obtained. To examine the downstream G protein signaling pathway mediated by 5-HTIA receptors, on the first day, a 6 cm culture dish was used for transfection with 1 μg of 5-HTIA receptors, 1 μg of Gαi1 containing C-terminal seaweed luciferase (Gαi1-Rluc), 1 μg of Gβ3, 1 μg of Gγ9 containing C-terminal green fluorescent protein (Gγ9-GFP), and 16 μL of PEI. The next day, the confluent cells of a 6 cm culture dish were digested and reseeded into a 96-well plate with 100 μL of culture medium was added to each well. On the third day, the drugs were added for test. The 96-well plate was taken out from the cell incubator to decant the culture medium, 40 μL of the substrate coelenterazine 400a (final concentration of 5 μM) was added to each well, and then 20 μL of different drugs were added sequentially from left to right to ensure that the final concentration of the drug decreased gradually from bottom to top, with two replicates per treatment. Finally, the prepared samples were loaded on machine for test. The machine readout value reflected the dissociation of G protein trimer, and thereby indicated the degree of activation of the G protein signaling pathway downstream of the 5-HTIA receptors.

[8] = biological target: T3, 5-HT1A receptor; experiment: 5-HT1A receptor Gαi1 BRET (G protein trimer dissociation); type: cell-based;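 further: cells transiently co-expressing 5-HT1A receptor, luciferase-tagged Gαi1, Gβ3 and GFP-tagged Gγ9, seeded in 96-well plates for BRET measurement of G protein signaling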
Procedure: as §3

[9] = 5-HT2A receptor, β-arrestin2 pathway
[10] = 5-HT1A receptor, G protein pathway
[11] = D2 receptor, G protein pathway, read-out: Gαi1 BRET EC50
[12] = D2 receptor, β-arrestin2 pathway, read-out: β-arrestin2 BRET EC50
[13] = 5-HT2A receptor, G protein pathway, read-out: Gαq BRET EC50
[14] = 5-HT2A receptor, β-arrestin2 pathway, read-out: β-arrestin2 BRET EC50
[15] = 293T membrane transiently expressing 5-HT1A, [3H]-LSD, read-out: 5-HT1A affinity Ki
[16] = 5-HT1A receptor, G protein pathway, read-out: Gαi1 BRET EC50

T2 sequence (P28223 whole entry): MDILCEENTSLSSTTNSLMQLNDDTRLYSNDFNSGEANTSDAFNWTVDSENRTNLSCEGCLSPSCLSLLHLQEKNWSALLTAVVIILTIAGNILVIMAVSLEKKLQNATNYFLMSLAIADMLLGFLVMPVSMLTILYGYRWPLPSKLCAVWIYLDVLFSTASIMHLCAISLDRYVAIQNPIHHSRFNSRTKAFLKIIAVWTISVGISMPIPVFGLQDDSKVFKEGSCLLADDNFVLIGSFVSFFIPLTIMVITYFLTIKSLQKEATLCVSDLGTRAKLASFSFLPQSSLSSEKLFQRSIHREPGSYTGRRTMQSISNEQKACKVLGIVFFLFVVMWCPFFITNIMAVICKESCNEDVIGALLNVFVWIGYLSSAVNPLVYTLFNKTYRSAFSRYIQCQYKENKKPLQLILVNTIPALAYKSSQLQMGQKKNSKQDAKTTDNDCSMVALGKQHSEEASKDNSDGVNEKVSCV
T3 sequence (P08908 whole entry): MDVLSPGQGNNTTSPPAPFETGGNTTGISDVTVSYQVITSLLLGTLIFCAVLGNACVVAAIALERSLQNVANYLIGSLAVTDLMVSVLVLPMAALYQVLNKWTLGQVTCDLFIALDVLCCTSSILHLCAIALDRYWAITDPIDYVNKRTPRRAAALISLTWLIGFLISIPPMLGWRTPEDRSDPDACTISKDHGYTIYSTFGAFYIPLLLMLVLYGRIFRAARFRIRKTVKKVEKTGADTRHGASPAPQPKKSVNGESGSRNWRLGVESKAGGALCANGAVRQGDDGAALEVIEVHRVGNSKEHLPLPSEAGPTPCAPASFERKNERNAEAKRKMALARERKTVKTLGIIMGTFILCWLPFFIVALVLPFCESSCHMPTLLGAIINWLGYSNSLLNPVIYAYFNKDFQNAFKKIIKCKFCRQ
T1 sequence (P14416 whole entry): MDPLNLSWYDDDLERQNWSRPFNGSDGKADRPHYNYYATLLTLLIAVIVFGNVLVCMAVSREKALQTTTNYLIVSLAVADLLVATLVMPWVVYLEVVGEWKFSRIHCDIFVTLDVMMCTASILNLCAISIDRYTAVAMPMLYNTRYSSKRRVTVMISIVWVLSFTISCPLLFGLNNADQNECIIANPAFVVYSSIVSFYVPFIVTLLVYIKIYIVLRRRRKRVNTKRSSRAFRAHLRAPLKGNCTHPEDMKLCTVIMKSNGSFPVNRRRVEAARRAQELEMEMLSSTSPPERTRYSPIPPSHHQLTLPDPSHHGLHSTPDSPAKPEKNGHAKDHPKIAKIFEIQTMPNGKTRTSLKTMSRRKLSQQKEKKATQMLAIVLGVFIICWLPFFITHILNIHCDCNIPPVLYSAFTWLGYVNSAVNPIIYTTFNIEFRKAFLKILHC

| SMILES | Ki [1] | Emax [2] | Emax [3] | Ki [4] | Emax [5] | Emax [6, 9] | Emax [8, 10] | EC50 [2, 11] | EC50 [3, 12] | EC50 [5, 13] | EC50 [6, 14] | Ki [7, 15] | EC50 [8, 16] | other results |
| --- | --- | --- | --- | --- | --- | --- | --- | --- | --- | --- | --- | --- | --- | --- |
| OCCN1CCN2c3cccc4scc(c34)CC2C1 (stereo not drawn) [Compound I-3, 2-(6a,7,9,10-Tetrahydropyrazino[1,2-a]Thieno [4,3,2-De]Quinolin-8 (6H)-Yl) Ethan-1-Ol] | > 10000 nM | 22.5% | 14.2% | 4130 nM | 43.6% | 90% | 62% |  |  |  |  |  |  | EC50 [2]: 40.7 nM; EC50 [3]: 189 nM; EC50 [5]: 1520 nM; EC50 [6]: 638 nM; Ki [7]: 4410 nM; EC50 [8]: 24200 nM |
| COc1cc2c(cc1OC)C(=O)N(CCCCN1CCN3c4cccc5scc(c45)CC3C1)C2 (stereo not drawn) [Compound I-23, 5,6-Dimethoxy-2-(4-(6a,7,9,10-Tetrahydropyrazino[1,2-a]Thieno [4,3,2-De]Quinolin-8 (6H)-Yl)Butyl) Isoindolin-1-One] | 750 nM | 61.9% | 38.5% | 160 nM | 18.9% | 138% | 71% | 282 nM | 130 nM | 245 nM | 8060 nM | 4130 nM | 6700 nM |  |
| Fc1ccc(CCN2CCN3c4cccc5scc(c45)CC3C2)cc1 (stereo not drawn) [Compound I-5, 8-(4-Fluorophenylethyl)-6,6a,7,8,9,10-Hexahydropyrazino[1,2-a]Thieno [4,3,2-De]Quinoline] | 7500 nM | 53.8% | 27.2% | 920 nM | 50% | 27.3% | 91% | 193 nM | 370 nM |  |  | 280 nM | 3130 nM | EC50 ([5]; read-out: Gαq BRET EC50): 1100 nM; EC50 ([6]; read-out: β-arrestin2 BRET EC50): 946 nM |
| O=C1c2ccccc2CN1CCCCN1CCN2c3cccc4scc(c34)CC2C1 (stereo not drawn) [Compound I-22, 2-(4-(6a,7,9,10-Tetrahydropyrazino[1,2-a]Thieno [4,3,2-De]Quinolin-8 (6H)-Yl)Butyl) Isoindolin-1-One] | 490 nM | 37% | 24.8% | 1200 nM | 13.8% | 64.6% | 87% | 161 nM | 328 nM | 966 nM | 3470 nM | 350 nM | 1470 nM |  |
| CN(C)C(=O)N[C@H]1CC[C@H](CCN2CCN3c4cccc5scc(c45)CC3C2)CC1 (stereo partly drawn) [Compound I-27, 1,1-Dimethyl-3-(4-(2-(6a, 7,9,10-Tetrahydropyrazino[1,2-a]Thieno [4,3,2-De]Quinolin-8 (6H)-Yl)Ethyl) Trans-Cyclohexyl) Urea] | 80 nM | 73.6% | 52.1% | 210 nM | 9.57% | 34.7% | 64% | 3.87 nM | 10.2 nM | 158 nM | 13.8 nM | 160 nM | 164 nM |  |
| Fc1ccc(-c2cncc(CN3CCN4c5cccc6scc(c56)CC4C3)c2)cc1 (stereo not drawn) [Compound I-8, 8-((5-(4-Fluorophenyl)Pyridin-3-Yl)Methyl)-6,6a,7,8,9,10-Hexahydropyrazino[1,2-a]Thieno [4,3,2-De]Quinoline] | 440 nM | 15.9% | 14.1% | 1460 nM | 21% | 84.2% | 53% | 531 nM | 371 nM | 4540 nM | 1290 nM | 9850 nM | 16300 nM |  |
| CCCN1CCN2c3cccc4scc(c34)CC2C1 (stereo not drawn) [Compound I-2, 8-Propyl-6,6a,7,8,9,10-Hexahydropyrazino[1,2-a]Thieno [4,3,2-De]Quinoline] | 380 nM | 12.1% | 27.6% | 710 nM | 7.6% | 66.3% | 72% | 747 nM | 19.3 nM | 2.41 nM | 298 nM | 3420 nM | 7720 nM |  |
| O=C(N[C@H]1CC[C@H](CCN2CCN3c4cccc5scc(c45)CC3C2)CC1)N1CCCCC1 (stereo partly drawn) [Compound I-29, N-(4-(2-(6a,7,9,10-Tetrahydropyrazino[1,2-a]Thieno [4,3,2-De]Quinolin-8 (6H)-Yl)Ethyl) Trans-Cyclohexyl) Piperidine-1-Carboxamide] | 180 nM | 45.2% | 31.8% | 450 nM | 8.61% | 21.8% | 62% | 32.2 nM | 102 nM | 299 nM | 30.2 nM | 120 nM | 1480 nM |  |
| O=c1ccc2ccc(OCCCN3CCN4c5cccc6scc(c56)CC4C3)cc2[nH]1 (stereo not drawn) [Compound I-17, 7-(3-(6a,7,9,10-Tetrahydropyrazino[1,2-a]Thieno [4,3,2-De]Quinolin-8 (6H)-Yl) Propoxy) Quinolin-2 (1H)-One] | 290 nM | 81.6% | 66.8% | 750 nM | 23.4% | 92.2% | 86% | 18.5 nM | 91.6 nM | 279 nM | 1270 nM | 340 nM | 754 nM |  |

From patent US20240383913A1, “THIOPHENE RING COMPOUND, PREPARATION METHOD THEREFOR AND APPLICATION THEREOF” (CENTER FOR EXCELLENCE IN MOLECULAR CELL SCIENCE, CHINESE …, priority 2021, published 2024)
